Numbering of substitutions follows the chain as printed.
Experiments:
Format in all cases: binding
Conditions in all cases: 15 °C
MARK3(48-370) Mutant 2 = target: T1, MARK3(48-370) Mutant 2 (Homo sapiens, UniProt P27448, E139D/I62L/L128I/L130I/T204H/V116I/V205Q); assay: SPR Extract2Chip, cellular biotinylated MARK3 Mutant 2, GSK461364A injected
T1 construct: made in house; host or cells: E. coli Rosetta 2, co-expressed with BirA; soluble lysate used without purification
T1 sequence (P27448 48-370 I62L/V116I/L128I/L130I/E139D/T204H/V205Q): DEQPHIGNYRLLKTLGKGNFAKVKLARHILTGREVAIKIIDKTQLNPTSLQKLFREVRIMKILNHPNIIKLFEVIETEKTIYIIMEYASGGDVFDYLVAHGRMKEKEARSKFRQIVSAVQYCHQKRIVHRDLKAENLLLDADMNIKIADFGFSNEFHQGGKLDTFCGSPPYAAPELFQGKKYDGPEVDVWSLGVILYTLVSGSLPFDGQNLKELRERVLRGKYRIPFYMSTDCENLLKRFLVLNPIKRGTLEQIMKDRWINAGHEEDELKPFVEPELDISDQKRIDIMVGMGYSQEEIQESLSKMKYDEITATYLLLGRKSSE
Method: (§1) The cellular biotinylation of MARK3(48-370) kinase domain mutants followed the same approach as described for CypD. The 6 different mutants were expressed in Rosetta^TM 2 in PB media, and induced with 100 µM IPTG overnight at 18 °C.
(§2) The cellular biotinylated MARK3 NUAK2-like mutants were immobilized using the approach described in Section 2.5.2. The soluble cell lysates were diluted to a final concentration of 200 µg/mL, then injected over the neutravidin surfaces for 200 or 1400 s in order to reach 1000 to 2300 RU.
(§3) The interaction analysis cycles consisted of 140 s of sample injection followed by 350 to 600 s of running buffer flow. The running buffer was composed of 20 mM HEPES pH 7.4, 100 mM NaCl, 5 mM MgCl2, 1 mM EGTA, 1 mM DTT, 0.05% Tween-20, and 2% DMSO, and the experiment was performed at 15 °C.
(§4) All sensorgrams were processed by first subtracting the binding response recorded from the control surface (reference spot, where only the avidin protein is immobilized), followed by subtraction of the buffer blank injection from the reaction spot. All datasets were fitted to a simple 1:1 Langmuir interaction model to determine the kinetic rate constants, and the interaction affinity was additionally calculated at a steady state when applicable. […]

MARK3(48-370) Mutant 3 = target: T2, MARK3(48-370) Mutant 3 (Homo sapiens, UniProt P27448, A68G/E139D/F67Y/I62L/L128I/L130I/N66T/T204H/V116I/V205Q); assay: SPR Extract2Chip, cellular biotinylated MARK3 Mutant 3, GSK461364A injected
T2 construct: made in house; host or cells: E. coli Rosetta 2, co-expressed with BirA; soluble lysate used without purification
T2 sequence (P27448 48-370 I62L/N66T/F67Y/A68G/V116I/L128I/L130I/E139D/T204H/V205Q): T1 sequence (P27448 48-370 I62L/V116I/L128I/L130I/E139D/T204H/V205Q) with N19T, F20Y, A21G
Method: as §1, §2, §3, §4

MARK3(48-370) Mutant 4 = target: T3, MARK3(48-370) Mutant 4 (Homo sapiens, UniProt P27448, A68G/E139D/F199L/F67Y/I62L/L128I/L130I/N66T/T204H/V116I/V205Q); assay: SPR Extract2Chip, cellular biotinylated MARK3 Mutant 4, GSK461364A injected
T3 construct: made in house; host or cells: E. coli Rosetta 2, co-expressed with BirA; soluble lysate used without purification
T3 sequence (P27448 48-370 I62L/N66T/F67Y/A68G/V116I/L128I/L130I/E139D/F199L/T204H/V205Q): T1 sequence (P27448 48-370 I62L/V116I/L128I/L130I/E139D/T204H/V205Q) with N19T, F20Y, A21G, F152L
Method: as §1, §2, §3, §4

In the case of `C[C@@H](Oc1cc(-n2cnc3ccc(CN4CCN(C)CC4)cc32)sc1C(N)=O)c1ccccc1C(F)(F)F` [GSK461364A], the “kd ± SD” value (MARK3(48-370) Mutant 2) is reported as 0.081 ± 0.015 s⁻¹, the “kd ± SD” value (MARK3(48-370) Mutant 3) is reported as 0.028 ± 0.003 s⁻¹ and the “kd ± SD” value (MARK3(48-370) Mutant 4) is reported as 0.029 ± 0.0028 s⁻¹.
